Experimental data from PMC5218480 (PLoS ONE, 2017).

System: MV-4-11 cells
Experiment: Gene expression microarray analysis (Affymetrix PrimeView) and GSEA
Format: cell-based, human
Parameters: RFU PODN (11730768_x_at) / Fold change /veh PODN (11730768_x_at) / RFU LINC00158 (11744669_a_at) / Fold change /veh LINC00158 (11744669_a_at) / RFU DUSP10 (11751237_a_at) / Fold change /veh DUSP10 (11751237_a_at) / RFU ID3 (11757404_x_at) / Fold change /veh ID3 (11757404_x_at) / RFU PLEKHG5 (11737974_s_at) / Fold change /veh PLEKHG5 (11737974_s_at) / RFU LRRC4B (11730491_at) / Fold change /veh LRRC4B (11730491_at) / RFU GIMAP4 (11747438_a_at) / Fold change /veh GIMAP4 (11747438_a_at) / RFU KRT8 (11758183_x_at) / Fold change /veh KRT8 (11758183_x_at) / RFU CNN1 (11734310_a_at) / Fold change /veh CNN1 (11734310_a_at) / RFU VPS37D (11726825_at) / Fold change /veh VPS37D (11726825_at) / RFU C10orf10 (11716522_x_at) / Fold change /veh C10orf10 (11716522_x_at) / RFU KIR2DL2 /// KIR2DL4 /// KIR2DL5A /// KIR2DL5B /// KIR2DS1 /// KIR2DS2 /// KIR2DS3 /// KIR2DS4 /// KIR3DL3 /// KIR3DL3 /// KIR3DS1 (11738374_at) / Fold change /veh KIR2DL2 /// KIR2DL4 /// KIR2DL5A /// KIR2DL5B /// KIR2DS1 /// KIR2DS2 /// KIR2DS3 /// KIR2DS4 /// KIR3DL3 /// KIR3DL3 /// KIR3DS1 (11738374_at) / RFU C1QL1 (11718748_at) / Fold change /veh C1QL1 (11718748_at) / RFU TMPRSS4 (11747572_a_at) / Fold change /veh TMPRSS4 (11747572_a_at) / RFU HAMP (11756126_x_at) / Fold change /veh HAMP (11756126_x_at) / RFU RNFT2 (11725882_a_at) / Fold change /veh RNFT2 (11725882_a_at) / RFU NR4A2 (11747474_a_at) / Fold change /veh NR4A2 (11747474_a_at) / RFU ABCC12 (11746883_a_at) / Fold change /veh ABCC12 (11746883_a_at) / RFU TMEM136 (11760407_x_at) / Fold change /veh TMEM136 (11760407_x_at) / RFU CLDN22 /// WWC2 (11732394_at) / Fold change /veh CLDN22 /// WWC2 (11732394_at) / RFU HLA-DPB1 (11760878_x_at) / Fold change /veh HLA-DPB1 (11760878_x_at) / RFU SPINT1 (11716480_a_at) / Fold change /veh SPINT1 (11716480_a_at) / RFU GAP43 (11754022_s_at) / Fold change /veh GAP43 (11754022_s_at) / RFU A4GNT (11735810_at) / Fold change /veh A4GNT (11735810_at) / RFU PRB3 (11715151_x_at) / Fold change /veh PRB3 (11715151_x_at) / RFU TUBB4B (11761932_at) / Fold change /veh TUBB4B (11761932_at) / RFU CAPN14 (11732068_a_at) / Fold change /veh CAPN14 (11732068_a_at) / RFU TMCC2 (11721928_a_at) / Fold change /veh TMCC2 (11721928_a_at) / RFU IRGQ (11745062_a_at) / Fold change /veh IRGQ (11745062_a_at) / RFU FAM174B (11720279_a_at) / Fold change /veh FAM174B (11720279_a_at) / RFU TMPRSS4 (11748680_a_at) / Fold change /veh TMPRSS4 (11748680_a_at) / RFU FAM212B (11763350_a_at) / Fold change /veh FAM212B (11763350_a_at) / RFU PLEKHG5 (11743358_a_at) / Fold change /veh PLEKHG5 (11743358_a_at) / RFU ZSCAN30 (11745921_a_at) / Fold change /veh ZSCAN30 (11745921_a_at) / RFU CMKLR1 (11741424_a_at) / Fold change /veh CMKLR1 (11741424_a_at) / RFU LOC101060620 /// MAPK8IP1 (11723275_at) / Fold change /veh LOC101060620 /// MAPK8IP1 (11723275_at) / RFU SPTSSB (11747773_x_at) / Fold change /veh SPTSSB (11747773_x_at) / RFU PRSS12 (11739890_at) / Fold change /veh PRSS12 (11739890_at) / RFU BIN1 (11741810_x_at) / Fold change /veh BIN1 (11741810_x_at) / RFU WNT11 (11732464_a_at) / Fold change /veh WNT11 (11732464_a_at) / RFU C10orf10 (11716521_a_at) / Fold change /veh C10orf10 (11716521_a_at) / RFU C5orf56 (11738089_at) / Fold change /veh C5orf56 (11738089_at) / RFU CYB561 (11721691_x_at) / Fold change /veh CYB561 (11721691_x_at) / RFU ANKRD19P (11752326_a_at) / Fold change /veh ANKRD19P (11752326_a_at) / RFU OR2T12 /// OR2T33 /// OR2T8 (11738714_s_at) / Fold change /veh OR2T12 /// OR2T33 /// OR2T8 (11738714_s_at) / RFU VCAN (11748164_a_at) / Fold change /veh VCAN (11748164_a_at) / RFU JSRP1 (11732532_at) / Fold change /veh JSRP1 (11732532_at) / RFU KRTAP10-11 (11738290_x_at) / Fold change /veh KRTAP10-11 (11738290_x_at) / RFU MYO3A (11730013_a_at) / Fold change /veh MYO3A (11730013_a_at) / RFU EBF3 (11725865_a_at) / Fold change /veh EBF3 (11725865_a_at) / RFU CAMK2N1 (11719241_x_at) / Fold change /veh CAMK2N1 (11719241_x_at) / RFU C5orf56 (11738088_a_at) / Fold change /veh C5orf56 (11738088_a_at) / RFU OLFML3 (11715873_a_at) / Fold change /veh OLFML3 (11715873_a_at) / RFU LOC100653217 /// NTM (11731650_a_at) / Fold change /veh LOC100653217 /// NTM (11731650_a_at) / RFU MAPK11 (11762145_a_at) / Fold change /veh MAPK11 (11762145_a_at) / RFU FIZ1 (11724087_x_at) / Fold change /veh FIZ1 (11724087_x_at) / RFU OASL (11726364_x_at) / Fold change /veh OASL (11726364_x_at) / RFU SOX15 (11748057_x_at) / Fold change /veh SOX15 (11748057_x_at) / RFU CD79A (11719716_a_at) / Fold change /veh CD79A (11719716_a_at) / RFU HIST1H1D (11736915_at) / Fold change /veh HIST1H1D (11736915_at) / RFU CASKIN2 (11723855_a_at) / Fold change /veh CASKIN2 (11723855_a_at) / RFU LOC730098 (11760151_x_at) / Fold change /veh LOC730098 (11760151_x_at) / RFU OR4N2 (11742367_at) / Fold change /veh OR4N2 (11742367_at) / RFU PRRT2 (11749266_a_at) / Fold change /veh PRRT2 (11749266_a_at) / RFU SNX32 (11753110_a_at) / Fold change /veh SNX32 (11753110_a_at) / RFU CDHR5 (11726645_a_at) / Fold change /veh CDHR5 (11726645_a_at) / RFU RCAN1 (11760418_a_at) / Fold change /veh RCAN1 (11760418_a_at) / RFU FAM167A (11723789_a_at) / Fold change /veh FAM167A (11723789_a_at) / RFU FAM26E (11764081_at) / Fold change /veh FAM26E (11764081_at) / RFU ISYNA1 (11749810_s_at) / Fold change /veh ISYNA1 (11749810_s_at) / RFU ACY1 (11761880_at) / Fold change /veh ACY1 (11761880_at) / RFU 11764098_at / Fold change /veh 11764098_at / RFU SAMD14 (11745864_x_at) / Fold change /veh SAMD14 (11745864_x_at) / RFU NPB (11741838_a_at) / Fold change /veh NPB (11741838_a_at) / RFU TMPRSS6 (11731388_a_at) / Fold change /veh TMPRSS6 (11731388_a_at) / RFU KRTAP10-2 (11738614_at) / Fold change /veh KRTAP10-2 (11738614_at) / RFU ARHGAP8 /// PRR5-ARHGAP8 (11727945_x_at) / Fold change /veh ARHGAP8 /// PRR5-ARHGAP8 (11727945_x_at) / RFU KRTAP5-7 /// NADSYN1 (11734609_at) / Fold change /veh KRTAP5-7 /// NADSYN1 (11734609_at) / RFU RASL12 (11751679_a_at) / Fold change /veh RASL12 (11751679_a_at) / RFU CDKN2B (11736163_a_at) / Fold change /veh CDKN2B (11736163_a_at) / RFU PRF1 (11729649_at) / Fold change /veh PRF1 (11729649_at) / RFU, ZNF638 /// ZNF638-IT1 / Fold change vs veh, ZNF638 /// ZNF638-IT1 / RFU, PANK3 / Fold change vs veh, PANK3 / RFU, SH3YL1 / Fold change vs veh, SH3YL1 / RFU, ZEB2 / Fold change vs veh, ZEB2 / RFU, NRIP1 / Fold change vs veh, NRIP1 / RFU, PTTG1IP / Fold change vs veh, PTTG1IP / RFU, CAPN2 / Fold change vs veh, CAPN2 / RFU, MED14 / Fold change vs veh, MED14 / RFU, SNORA58 / Fold change vs veh, SNORA58 / RFU, C1orf63 / Fold change vs veh, C1orf63 / RFU, LRRFIP1 / Fold change vs veh, LRRFIP1 / RFU, NDUFAF7 / Fold change vs veh, NDUFAF7 / RFU, SLC12A2 / Fold change vs veh, SLC12A2 / RFU, IBTK / Fold change vs veh, IBTK / RFU, ESF1 / Fold change vs veh, ESF1 / Fold change vs veh, TMEM50B / RFU, TAOK1 / Fold change vs veh, TAOK1 / RFU, ACBD3 / Fold change vs veh, ACBD3 / RFU, TMA16 / Fold change vs veh, TMA16 / RFU, RWDD3 / Fold change vs veh, RWDD3 / RFU, BCAT1 / Fold change vs veh, BCAT1 / RFU, EDEM3 / Fold change vs veh, EDEM3 / RFU, TMEM33 / Fold change vs veh, TMEM33 / RFU, WDR75 / Fold change vs veh, WDR75 / RFU, AHCTF1 / Fold change vs veh, AHCTF1 / RFU, TFRC / Fold change vs veh, TFRC / RFU, ZDHHC17 / Fold change vs veh, ZDHHC17 / RFU, NOM1 / Fold change vs veh, NOM1 / RFU, ARL8B / Fold change vs veh, ARL8B / RFU, ZBTB11 / Fold change vs veh, ZBTB11 / RFU, TAMM41 / Fold change vs veh, TAMM41 / RFU, KIAA1704 /// LOC100996395 / Fold change vs veh, KIAA1704 /// LOC100996395 / RFU, ING1 / Fold change vs veh, ING1 / RFU, TRMT61B / Fold change vs veh, TRMT61B / RFU, FUBP3 / Fold change vs veh, FUBP3 / RFU, TP53 / Fold change vs veh, TP53 / RFU, TNKS2 / Fold change vs veh, TNKS2 / RFU, ZFP14 / Fold change vs veh, ZFP14 / RFU, ACTR2 / Fold change vs veh, ACTR2 / RFU, PPP3R1 / Fold change vs veh, PPP3R1 / RFU, PIK3R1 / Fold change vs veh, PIK3R1 / RFU, HNRNPA1 / Fold change vs veh, HNRNPA1 / RFU, RNF170 / Fold change vs veh, RNF170 / RFU, ZNF28 / Fold change vs veh, ZNF28 / RFU, RNGTT / Fold change vs veh, RNGTT / RFU, OGT / Fold change vs veh, OGT / RFU, BRD1 / Fold change vs veh, BRD1 / RFU, MARS / Fold change vs veh, MARS / RFU, ZNF655 / Fold change vs veh, ZNF655 / RFU, FAHD1 / Fold change vs veh, FAHD1 / RFU, BDP1 / Fold change vs veh, BDP1 / RFU, LRRCC1 / Fold change vs veh, LRRCC1 / RFU, ARID1A / Fold change vs veh, ARID1A / RFU, ZNF146 / Fold change vs veh, ZNF146 / RFU, ZNF330 / Fold change vs veh, ZNF330 / RFU, GPN3 / Fold change vs veh, GPN3 / RFU, C9orf123 / Fold change vs veh, C9orf123 / RFU, N4BP2L2 / Fold change vs veh, N4BP2L2 / RFU, ARFIP1 / Fold change vs veh, ARFIP1 / RFU, FAM179B / Fold change vs veh, FAM179B / RFU, BCL10 / Fold change vs veh, BCL10 / RFU, UHRF1BP1L / Fold change vs veh, UHRF1BP1L / RFU, BET1 / Fold change vs veh, BET1 / RFU, CNOT2 / Fold change vs veh, CNOT2 / RFU, ZNF268 / Fold change vs veh, ZNF268 / Fold change vs veh, ZNF507 / RFU, DGCR2 / Fold change vs veh, DGCR2 / RFU, WDSUB1 / Fold change vs veh, WDSUB1 / Fold change vs veh, HSP90B1 /// MIR3652 / RFU, ADSS / Fold change vs veh, ADSS / RFU, GK / Fold change vs veh, GK / RFU, ZNF148 / Fold change vs veh, ZNF148 / RFU, TAF9 / Fold change vs veh, TAF9 / RFU, SLC1A5 / Fold change vs veh, SLC1A5 / RFU, SLMO2 / Fold change vs veh, SLMO2 / RFU, ABCC4 / Fold change vs veh, ABCC4 / RFU, LOC101060439 /// RAP1B / Fold change vs veh, LOC101060439 /// RAP1B / RFU, RFX7 / Fold change vs veh, RFX7 / RFU, GTPBP10 / Fold change vs veh, GTPBP10 / RFU, CNEP1R1 / Fold change vs veh, CNEP1R1 / RFU, BIVM-ERCC5 /// ERCC5 / Fold change vs veh, BIVM-ERCC5 /// ERCC5 / RFU, ILF3 / Fold change vs veh, ILF3 / RFU 11762660_at / Fold change /veh 11762660_at / RFU VCAN (11757783_s_at) / Fold change /veh VCAN (11757783_s_at) / RFU DDX43 (11728927_at) / Fold change /veh DDX43 (11728927_at) / RFU KRT8 (11758188_x_at) / Fold change /veh KRT8 (11758188_x_at) / RFU NKD1 (11759106_at) / Fold change /veh NKD1 (11759106_at) / RFU SRD5A1 (11742802_a_at) / Fold change /veh SRD5A1 (11742802_a_at) / RFU TPSAB1 /// TPSB2 (11721975_s_at) / Fold change /veh TPSAB1 /// TPSB2 (11721975_s_at) / RFU GSTM3 (11746129_a_at) / Fold change /veh GSTM3 (11746129_a_at) / RFU IL23R (11737362_x_at) / Fold change /veh IL23R (11737362_x_at) / RFU TMEM51 (11727254_a_at) / Fold change /veh TMEM51 (11727254_a_at) / RFU PIWIL2 (11732686_x_at) / Fold change /veh PIWIL2 (11732686_x_at) / RFU ORM1 (11744905_x_at) / Fold change /veh ORM1 (11744905_x_at) / RFU CCDC152 (11743942_at) / Fold change /veh CCDC152 (11743942_at) / RFU ECM1 (11717891_a_at) / Fold change /veh ECM1 (11717891_a_at) / RFU IL23R (11748794_a_at) / Fold change /veh IL23R (11748794_a_at) / RFU TNFAIP8L3 (11732012_x_at) / Fold change /veh TNFAIP8L3 (11732012_x_at) / RFU MBOAT4 (11741988_at) / Fold change /veh MBOAT4 (11741988_at) / RFU 11764193_at / Fold change /veh 11764193_at / RFU TMEM53 (11763286_at) / Fold change /veh TMEM53 (11763286_at) / RFU MAGEB2 (11727129_at) / Fold change /veh MAGEB2 (11727129_at) / RFU TMEM200A (11744735_a_at) / Fold change /veh TMEM200A (11744735_a_at) / RFU CCDC152 (11751479_a_at) / Fold change /veh CCDC152 (11751479_a_at) / RFU FAM211A (11726209_a_at) / Fold change /veh FAM211A (11726209_a_at) / RFU RGS16 (11746705_a_at) / Fold change /veh RGS16 (11746705_a_at) / RFU VCAN (11755009_s_at) / Fold change /veh VCAN (11755009_s_at) / RFU RHOB (11743442_s_at) / Fold change /veh RHOB (11743442_s_at) / RFU RGS16 (11720943_a_at) / Fold change /veh RGS16 (11720943_a_at) / RFU RGS16 (11720944_at) / Fold change /veh RGS16 (11720944_at) / RFU, VPS4B / Fold change vs veh, VPS4B / RFU, CREB1 / Fold change vs veh, CREB1 / RFU, DNAJC13 / Fold change vs veh, DNAJC13 / RFU, GNAQ / Fold change vs veh, GNAQ / RFU, CDK5R1 / Fold change vs veh, CDK5R1 / RFU, ZRANB3 / Fold change vs veh, ZRANB3 / RFU, CUL4A / Fold change vs veh, CUL4A / RFU, CCNY / Fold change vs veh, CCNY / RFU, UFL1 / Fold change vs veh, UFL1 / RFU, COG3 / Fold change vs veh, COG3 / RFU, DIAPH2 / Fold change vs veh, DIAPH2 / RFU, SKA2 / Fold change vs veh, SKA2 / RFU, AFF3 / Fold change vs veh, AFF3 / RFU, LMF1 / Fold change vs veh, LMF1 / RFU, IPO11 / Fold change vs veh, IPO11 / RFU, DFFB / Fold change vs veh, DFFB / RFU, FOXP1 / Fold change vs veh, FOXP1 / RFU, CARD8 / Fold change vs veh, CARD8 / RFU, STRN3 / Fold change vs veh, STRN3 / RFU, ADK / Fold change vs veh, ADK / RFU, RASSF2 / Fold change vs veh, RASSF2 / RFU, WIPF1 / Fold change vs veh, WIPF1 / RFU, LARP1B / Fold change vs veh, LARP1B / RFU, RASA1 / Fold change vs veh, RASA1 / RFU, RB1 / Fold change vs veh, RB1 / RFU, PPFIA1 / Fold change vs veh, PPFIA1 / RFU, MAT2A / Fold change vs veh, MAT2A / RFU, CCT5 / Fold change vs veh, CCT5 / RFU, WDR92 / Fold change vs veh, WDR92 / RFU, CUX1 / Fold change vs veh, CUX1 / RFU, TTC7A / Fold change vs veh, TTC7A / RFU, TMEM135 / Fold change vs veh, TMEM135 / RFU, DEPTOR / Fold change vs veh, DEPTOR / RFU, CPM / Fold change vs veh, CPM / RFU, DNAJB6 / Fold change vs veh, DNAJB6 / RFU, CACNA2D3 / Fold change vs veh, CACNA2D3 / RFU, DTX4 / Fold change vs veh, DTX4 / RFU, TFCP2 / Fold change vs veh, TFCP2 / RFU, GMCL1 /// GMCL1P1 / Fold change vs veh, GMCL1 /// GMCL1P1 / RFU, AEBP2 / Fold change vs veh, AEBP2 / RFU, SNHG1 /// SNORD22 /// SNORD25 /// SNORD26 /// SNORD27 /// SNORD28 /// SNORD29 /// SNORD31 / Fold change vs veh, SNHG1 /// SNORD22 /// SNORD25 /// SNORD26 /// SNORD27 /// SNORD28 /// SNORD29 /// SNORD31 / Fold change (Aza/veh), C12orf56 (ProbeSet 11735607_a_at) / Fold change (ACY-1035/veh), C12orf56 (ProbeSet 11735607_a_at) / Fold change (Aza/veh), FGFR1OP (ProbeSet 11751329_s_at) / Fold change (ACY-1035/veh), FGFR1OP (ProbeSet 11751329_s_at) / Fold change (Aza/veh), VPS36 (ProbeSet 11739960_a_at) / Fold change (ACY-1035/veh), VPS36 (ProbeSet 11739960_a_at) / RFU SYPL1 (11715823_x_at) / Fold change /veh SYPL1 (11715823_x_at) / RFU IGFBP7 (11715501_s_at) / Fold change /veh IGFBP7 (11715501_s_at) / RFU REEP3 (11722064_at) / Fold change /veh REEP3 (11722064_at) / RFU IGLL1 (11728026_x_at) / Fold change /veh IGLL1 (11728026_x_at): dose or concentration left out as unconfirmed
Details: ProbeSet 11718569_a_at; LIST D

`Nc1ncn([C@@H]2O[C@H](CO)[C@@H](O)[C@H]2O)c(=O)n1` [azacitidine] was tested, and the “Fold change vs veh, WIPF1” value was 0.72.
